Laboratory results: patent US20150045424A1, “COMPOSITION USEFUL FOR THE TREATMENT OF TYPE 2 DIABETES” (SIGMA-TAU INDUSTRIE FARMACEUTICHE RIUNITE S.P.A., priority 2007, published 2015)

Key:
Format in all cases: in vivo, mouse
C57BL/KsJ db/db mice [1] = assay: Blood glucose levels of db/db mice (feeding, post-absorption, fasting); settings: n=6
Excerpt: A much used genetically diabetic mouse model is the C57BL/KsJ db/db mouse.
The genetic basis of this model is a defect in the leptin receptor gene which gives rise to leptin resistance and leads to hyperphagia, obesity, hyperinsulinaemia and insulin resistance, with subsequent symptoms of insufficient insulin secretion and hyperglycaemia (Kodama et al., Diabetologia 37: 739-744, 1994; Chen et al, Cell 84: 491-495, 1996).
(§1) The C57BL/KsJ db/db mice used in the experiments were supplied by Jackson Lab (via Ch. River). After 10 days of acclimatisation in standard conditions (22±2 [deg.]C.; 55±15% humidity; 15-20 air changes/hour; 12 hour light-darkness cycle with light from 7 a.m. to 7 p.m.) on a standard 4 RF21 diet (Mucedola), blood samples were taken in post-absorption conditions (fasting from 8.30 a.m. to 4.30 p.m.) from the caudal vein with the aid of a Jelco 22G catheter (Johnson and Johnson). Glucose, insulin, triglyceride, cholesterol, free fatty acid and urea levels were checked in the plasma to ensure well-matched distribution of the mice in the treatment groups.
At the start of treatment, the body weight of the animals was checked and monitoring of the animals' consumption of water and feed was scheduled.
(§2) The mice were divided into groups and treated orally twice daily with:
(§3) Simvastatin 100 mg/kg; L-carnitine inner salt 400 mg/kg; acetyl L-carnitine HCl 592 mg/kg (equimolar amount respect to L-carnitine); propionyl L-carnitine HCl 627 mg/kg (equimolar amount respect to L-carnitine); L-carnitine inner salt 400 mg/kg+Simvastatin 100 mg/kg; acetyl L-carnitine HCl 592 mg/kg+Simvastatin 100 mg/kg; propionyl L-carnitine HCl 627 mg/kg+Simvastatin 100 mg/kg.
(§4) In the course of the experiment, serum glucose levels, glucose tolerance (OGTT), a number of lipid status variables and weight gain were monitored.

C57BL/KsJ db/db mice [2] = assay: Oral glucose tolerance test (OGTT) in db/db mice; settings: oral twice daily for 18 days, OGTT glucose 3 g/kg, fasted 18 hours, 5 hours after last treatment, n=6
Protocol: as §1, §2, §3, §4

C57BL/KsJ db/db mice [3] = assay: Plasma fructosamine levels of db/db mice (indicator of protein glycosylation); settings: oral twice daily for 25 days, post-absorption (fasting 9 a.m. to 4.30 p.m.), 7.5 hours after last treatment, n=6
Protocol: as §1, §2, §3, §4

C57BL/KsJ db/db mice [4] = assay: Plasma triglyceride levels of db/db mice; settings: oral twice daily for 25 days, post-absorption (fasting 9 a.m. to 4.30 p.m.), 7.5 hours after last treatment, n=6
Protocol: as §1, §2, §3, §4

C57BL/KsJ db/db mice [5] = assay: Plasma HDL-cholesterol levels of db/db mice; settings: oral twice daily for 25 days, post-absorption (fasting 9 a.m. to 4.30 p.m.), 7.5 hours after last treatment, n=6
Protocol: as §1, §2, §3, §4

[6] = oral twice daily for 12 days, blood sample in feeding condition, approximately 15 hours after last treatment
[7] = oral twice daily for 12 days, post-absorption condition (fasting 9 a.m. to 5 p.m.), 8 hours after last treatment
[8] = oral twice daily for 18 days, fasted for 18 hours, 5 hours after last treatment

Structure (SMILES) | Glucose Mean values (C57BL/KsJ db/db mice [1]; [6]) [mg/dL] | Glucose Mean values (C57BL/KsJ db/db mice [1]; [7]) [mg/dL] | Glucose Mean values (C57BL/KsJ db/db mice [1]; [8]) [mg/dL] | AUC Glucose (OGTT) Mean values (C57BL/KsJ db/db mice [2]) [u.a.] | Fructosamine Mean values (C57BL/KsJ db/db mice [3]) [mM] | Triglycerides Mean values (C57BL/KsJ db/db mice [4]) [mg/dL] | HDL-cholesterol Mean values (C57BL/KsJ db/db mice [5]) [mg/dL]
CCC(C)(C)C(=O)O[C@H]1C[C@@H](C)C=C2C=C[C@H](C)[C@H](CC[C@@H]3C[C@@H](O)CC(=O)O3)[C@H]21 [Simvastatin] | 465.0 | 418.1 | 328.3 | 50973.3 | 0.76 | 83.6 | 74.5
CC(=O)O[C@H](CC(=O)[O-])C[N+](C)(C)C [Acetyl L-carnitine, acetyl L-carnitine] | 468.0 | 416.1 | 332.0 | 49332.3 | 0.85 | 85.6 | 84.5
CCC(=O)O[C@H](CC(=O)[O-])C[N+](C)(C)C [Propionyl L-carnitine, propionyl L-carnitine] | 475.5 | 411 | 328.6 | 49005.5 | 0.81 | 86.2 | 80.9
C[N+](C)(C)C[C@H](O)CC(=O)[O-] [L-carnitine] | 470.0 | 416.5 | 324.8 | 50187.8 | 0.81 | 85.7 | 84.0
